From ChEMBL document CHEMBL1135659, “Sulfamide-based inhibitors for carboxypeptidase A. Novel type transition state analogue inhibitors for zinc proteases” (J Med Chem, 2002)

Molecular target: T1, Carboxypeptidase A1 (Bos taurus, UniProt P00730)
T1 sequence (P00730 whole entry): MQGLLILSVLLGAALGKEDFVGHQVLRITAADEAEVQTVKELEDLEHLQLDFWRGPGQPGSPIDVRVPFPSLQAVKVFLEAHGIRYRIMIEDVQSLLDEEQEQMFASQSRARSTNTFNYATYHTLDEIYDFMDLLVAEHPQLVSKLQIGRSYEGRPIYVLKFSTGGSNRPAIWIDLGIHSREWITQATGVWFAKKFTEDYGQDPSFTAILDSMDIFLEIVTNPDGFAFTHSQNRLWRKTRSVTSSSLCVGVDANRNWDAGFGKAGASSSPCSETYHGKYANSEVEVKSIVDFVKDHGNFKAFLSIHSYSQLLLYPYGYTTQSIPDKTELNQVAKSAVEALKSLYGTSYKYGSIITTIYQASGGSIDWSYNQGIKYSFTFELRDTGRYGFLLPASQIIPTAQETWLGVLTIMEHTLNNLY
Experiment: Inhibitory activity against Carboxypeptidase A

Row | SMILES | Ki [µM]
1 | CNS(=O)(=O)N[C@@H](Cc1ccccc1)C(=O)O | 180
2 | O=C(O)[C@H](Cc1ccccc1)NS(=O)(=O)NCc1ccccc1 | 35
3 | NS(=O)(=O)NC[C@@H](Cc1ccccc1)C(=O)O | 1400
4 | CN([C@@H](Cc1ccccc1)C(=O)O)S(N)(=O)=O | 3500
5 | CC(C)NS(=O)(=O)N[C@@H](Cc1ccccc1)C(=O)O | 610

Second part, the molecule after the results:

Row | Ki [µM] | SMILES
6 | 470 | NS(=O)(=O)N[C@H](Cc1ccccc1)C(=O)O
7 | 2900 | NS(=O)(=O)NCC(Cc1ccccc1)C(=O)O (stereo not drawn)
8 | 180 | O=C(O)[C@H](Cc1ccccc1)NS(=O)(=O)NCCc1ccccc1
